In ChEMBL document CHEMBL5241131, “2-Anilino-4-(1-methyl-1H-pyrazol-4-yl)pyrimidine-derived CDK2 inhibitors as anticancer agents: Design, synthesis & evaluation” (Bioorg Med Chem, 2023):
Active and inactive are the calls of the source. The calls are words filed in the database; no cut-off is given here.

Assays:
[1] = Antiproliferative activity against human COV504 cells assessed as inhibition of cell growth incubated for 72 hrs by MTT assay; format: functional
HCT-116 [2] = assay: Induction of apoptosis in human HCT-116 cells assessed as necrotic cells at 1 uM incubated for 72 hrs by AnnexinV-FITC/propidium iodide staining based flow cytometry (Rvb =0.71%); format: functional
NCI-H460 = assay: Antiproliferative activity against human NCI-H460 cells assessed as inhibition of cell growth incubated for 72 hrs by MTT assay; format: functional
[3] = Antiproliferative activity against human COV318 cells assessed as inhibition of cell growth incubated for 72 hrs by MTT assay; format: functional
A2780 = assay: Antiproliferative activity against human A2780 cells assessed as inhibition of cell growth incubated for 72 hrs by MTT assay; format: functional
OV-90 = assay: Antiproliferative activity against human OV-90 cells assessed as inhibition of cell growth incubated for 72 hrs by MTT assay; format: functional
HCT-116 [4] = assay: Induction of apoptosis in human HCT-116 cells assessed as early apoptotic cells at 0.5 uM incubated for 72 hrs by AnnexinV-FITC/propidium iodide staining based flow cytometry (reference value: 2.95%); format: functional
OVCAR-5 = assay: Antiproliferative activity against human OVCAR-5 cells assessed as inhibition of cell growth incubated for 72 hrs by MTT assay; format: functional
HCT-116 [5] = assay: Induction of cell cycle arrest in human HCT-116 cells assessed as accumulation of cells at G1 phase at 0.5 uM incubated for 24 hrs by propidium iodide staining based flow cytometry (reference value: 51.33%); format: functional
HT-29 = assay: Antiproliferative activity against human HT-29 cells assessed as inhibition of cell growth incubated for 72 hrs by MTT assay; format: functional
U-937 = assay: Antiproliferative activity against human U-937 cells assessed as inhibition of cell growth incubated for 72 hrs by MTT assay; format: functional
U-251 = assay: Antiproliferative activity against human U-251 cells assessed as inhibition of cell growth incubated for 72 hrs by MTT assay; format: functional
NCI-H82 = assay: Antiproliferative activity against human NCI-H82 cells assessed as inhibition of cell growth incubated for 72 hrs by MTT assay; format: functional
HCT-116 [6] = assay: Induction of cell cycle arrest in human HCT-116 cells assessed as accumulation of cells at sub G1 phase at 1 uM incubated for 24 hrs by propidium iodide staining based flow cytometry (reference value: 0.24%); format: functional
HCT-116 [7] = assay: Induction of apoptosis in human HCT-116 cells assessed as late apoptotic cells at 0.5 uM incubated for 72 hrs by AnnexinV-FITC/propidium iodide staining based flow cytometry (reference value: 2.91%); format: functional
HCT-116 [8] = assay: Induction of apoptosis in human HCT-116 cells assessed as viable cells at 0.5 uM incubated for 72 hrs by AnnexinV-FITC/propidium iodide staining based flow cytometry (reference value: 93.43%); format: functional; conditions: read-out: Activity
HCT-116 [9] = assay: Induction of cell cycle arrest in human HCT-116 cells assessed as accumulation of cells at G2/M phase at 1 uM incubated for 24 hrs by propidium iodide staining based flow cytometry (reference value: 28.37%); format: functional
CDK9/cyclin T1 = CDK9/cyclin T1 (Homo sapiens, UniProt P50750); assay: Inhibition of CDK9/cyclin T1 (unknown origin) assessed as inhibition constant incubated for 30 to 60 mins presence of dithiothreitol by Cheng-Prusoff equation analysis; format: protein-complex assay
[10] = molecular target: Cyclin-dependent kinase 5/CDK5 activator 1 (Homo sapiens, UniProt Q00535); assay: Inhibition of CDK5/p25 (unknown origin) assessed as inhibition constant incubated for 30 to 60 mins presence of dithiothreitol by Cheng-Prusoff equation analysis; format: protein-complex assay
[11] = molecular target: Cyclin-dependent kinase 2 (Homo sapiens) (UniProt P24941); assay: Inhibition of CDK2 in human HCT-116 cells assessed as reduction in phosphorylation at Thr821 residue incubated for 24 hrs by Western blot analysis; format: cell-based; conditions: dose 0.5-1 µM
HCT-116 [12] = assay: Induction of cell cycle arrest in human HCT-116 cells assessed as accumulation of cells at G2/M phase at 0.5 uM incubated for 24 hrs by propidium iodide staining based flow cytometry (reference value: 28.37%); format: functional
HCT-116 [13] = assay: Induction of DNA damage in human HCT-116 cells assessed as increase in H2AX phosphorylation at Ser139 residue at 0.5 to 1 uM incubated for 24 hrs by Western blot analysis; format: functional, cell-based; conditions: dose 0.5-1 µM
COLO 205 = assay: Antiproliferative activity against human COLO 205 cells assessed as inhibition of cell growth incubated for 72 hrs by MTT assay; format: functional
ES-2 = assay: Antiproliferative activity against human ES2 cells assessed as inhibition of cell growth incubated for 72 hrs by MTT assay; format: functional
HCT-116 [14] = assay: Induction of apoptosis in human HCT-116 cells assessed as late apoptotic cells at 1 uM incubated for 72 hrs by AnnexinV-FITC/propidium iodide staining based flow cytometry (reference value: 2.91%); format: functional
MDA-MB-231 = assay: Antiproliferative activity against human MDA-MB-231 cells assessed as inhibition of cell growth incubated for 72 hrs by MTT assay; format: functional
MV4-11 = assay: Antiproliferative activity against human MV4-11 cells assessed as inhibition of cell growth incubated for 72 hrs by MTT assay; format: functional
HCT-116 [15] = assay: Antiproliferative activity against human HCT-116 cells assessed as inhibition of cell growth incubated for 72 hrs by MTT assay; format: functional
HCT-116 [16] = assay: Induction of cell cycle arrest in human HCT-116 cells assessed as accumulation of cells at sub G1 phase at 0.5 uM incubated for 24 hrs by propidium iodide staining based flow cytometry (reference value: 0.24%); format: functional
OAW-28 = assay: Antiproliferative activity against human OAW-28 cells assessed as inhibition of cell growth incubated for 72 hrs by MTT assay; format: functional
HCT-116 [17] = assay: Induction of cell cycle arrest in human HCT-116 cells assessed as accumulation of cells at S phase at 1 uM incubated for 24 hrs by propidium iodide staining based flow cytometry (reference value: 18.01%); format: functional
HCT-116 [18] = assay: Induction of cell cycle arrest in human HCT-116 cells assessed as accumulation of cells at S phase at 0.5 uM incubated for 24 hrs by propidium iodide staining based flow cytometry (reference value: 18.01%); format: functional
HCT-116 [19] = assay: Induction of apoptosis in human HCT-116 cells assessed as necrotic cells at 0.5 uM incubated for 72 hrs by AnnexinV-FITC/propidium iodide staining based flow cytometry (Rvb =0.71%); format: functional
[20] = molecular target: Cyclin-dependent kinase 1/cyclin B (Homo sapiens, UniProt P06493); assay: Inhibition of CDK1/Cyclin B (unknown origin) assessed as inhibition constant incubated for 30 to 60 mins presence of dithiothreitol by Cheng-Prusoff equation analysis; format: protein-complex assay
KM12 = assay: Antiproliferative activity against human KM12 cells assessed as inhibition of cell growth incubated for 72 hrs by MTT assay; format: functional
HCT-116 [21] = assay: Downregulation of CDC25B expression in human HCT-116 cells at 0.5 to 1 uM incubated for 24 hrs by Western blot analysis; format: functional, cell-based; conditions: dose 0.5-1 µM
HCT-116 [22] = assay: Induction of apoptosis in human HCT-116 cells assessed as viable cells at 1 uM incubated for 72 hrs by AnnexinV-FITC/propidium iodide staining based flow cytometry (reference value: 93.43%); format: functional; conditions: read-out: Activity
HCT-116 [23] = assay: Induction of apoptosis in human HCT-116 cells assessed as increase in cleaved PARP level at 0.5 to 1 uM incubated for 24 hrs by Western blot analysis; format: functional, cell-based; conditions: dose 0.5-1 µM
[24] = molecular target: Cyclin-dependent kinase 2/cyclin E (Homo sapiens, UniProt P24941); assay: Inhibition of CDK2/cyclin E (unknown origin) assessed as inhibition constant incubated for 30 to 60 mins presence of dithiothreitol by Cheng-Prusoff equation analysis; format: protein-complex assay
[25] = molecular target: Cyclin-dependent kinase 2 (Homo sapiens) (UniProt P24941); assay: Inhibition of CDK2 in human HCT-116 cells assessed as reduction in phosphorylation at Serine 807/811 residue incubated for 24 hrs by Western blot analysis; format: cell-based; conditions: dose 0.5-1 µM
HCT-116 [26] = assay: Induction of apoptosis in human HCT-116 cells assessed as early apoptotic cells at 1 uM incubated for 72 hrs by AnnexinV-FITC/propidium iodide staining based flow cytometry (reference value: 2.95%); format: functional
HCT-116 [27] = assay: Induction of cell cycle arrest in human HCT-116 cells assessed as accumulation of cells at G1 phase at 1 uM incubated for 24 hrs by propidium iodide staining based flow cytometry (reference value: 51.33%); format: functional

Chain of Cyclin-dependent kinase 5/CDK5 activator 1 (Q00535 whole entry): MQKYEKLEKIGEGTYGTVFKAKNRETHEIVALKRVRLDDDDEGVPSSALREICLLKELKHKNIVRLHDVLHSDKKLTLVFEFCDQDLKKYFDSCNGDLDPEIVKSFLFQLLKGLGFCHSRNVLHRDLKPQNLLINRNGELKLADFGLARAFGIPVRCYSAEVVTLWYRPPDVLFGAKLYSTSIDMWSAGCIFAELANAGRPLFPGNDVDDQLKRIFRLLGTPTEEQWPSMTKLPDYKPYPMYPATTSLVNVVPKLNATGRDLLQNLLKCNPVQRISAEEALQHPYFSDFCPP
Chain of Cyclin-dependent kinase 5/CDK5 activator 1 (Q15078 whole entry, further chain): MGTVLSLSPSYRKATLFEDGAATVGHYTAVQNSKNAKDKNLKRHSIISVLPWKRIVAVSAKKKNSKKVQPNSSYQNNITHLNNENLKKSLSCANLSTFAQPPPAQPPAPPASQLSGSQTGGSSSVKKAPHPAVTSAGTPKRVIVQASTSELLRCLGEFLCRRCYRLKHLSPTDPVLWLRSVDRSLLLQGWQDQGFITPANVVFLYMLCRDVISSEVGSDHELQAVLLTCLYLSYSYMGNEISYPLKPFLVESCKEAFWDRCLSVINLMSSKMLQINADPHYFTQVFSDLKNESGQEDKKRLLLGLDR
Chain of CDK9/cyclin T1 (O60563 whole entry): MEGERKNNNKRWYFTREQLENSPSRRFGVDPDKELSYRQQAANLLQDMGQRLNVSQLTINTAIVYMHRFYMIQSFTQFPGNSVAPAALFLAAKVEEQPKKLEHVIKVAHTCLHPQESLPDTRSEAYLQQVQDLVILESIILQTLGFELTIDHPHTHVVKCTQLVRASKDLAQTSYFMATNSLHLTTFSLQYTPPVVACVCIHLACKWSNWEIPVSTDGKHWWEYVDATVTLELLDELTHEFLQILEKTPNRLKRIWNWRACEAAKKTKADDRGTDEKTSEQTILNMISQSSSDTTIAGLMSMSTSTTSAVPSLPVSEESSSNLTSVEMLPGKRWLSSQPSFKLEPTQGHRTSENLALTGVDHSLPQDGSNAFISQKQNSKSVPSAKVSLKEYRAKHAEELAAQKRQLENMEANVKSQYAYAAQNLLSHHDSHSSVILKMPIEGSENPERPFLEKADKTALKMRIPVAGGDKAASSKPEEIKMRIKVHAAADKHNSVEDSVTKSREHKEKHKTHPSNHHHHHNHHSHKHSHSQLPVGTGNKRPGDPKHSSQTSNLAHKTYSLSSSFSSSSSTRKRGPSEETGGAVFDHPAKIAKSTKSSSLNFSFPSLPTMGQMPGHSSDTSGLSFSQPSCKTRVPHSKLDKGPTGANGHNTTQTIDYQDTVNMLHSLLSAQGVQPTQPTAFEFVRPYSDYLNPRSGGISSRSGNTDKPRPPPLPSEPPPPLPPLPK
Chain of CDK9/cyclin T1 (P50750 whole entry): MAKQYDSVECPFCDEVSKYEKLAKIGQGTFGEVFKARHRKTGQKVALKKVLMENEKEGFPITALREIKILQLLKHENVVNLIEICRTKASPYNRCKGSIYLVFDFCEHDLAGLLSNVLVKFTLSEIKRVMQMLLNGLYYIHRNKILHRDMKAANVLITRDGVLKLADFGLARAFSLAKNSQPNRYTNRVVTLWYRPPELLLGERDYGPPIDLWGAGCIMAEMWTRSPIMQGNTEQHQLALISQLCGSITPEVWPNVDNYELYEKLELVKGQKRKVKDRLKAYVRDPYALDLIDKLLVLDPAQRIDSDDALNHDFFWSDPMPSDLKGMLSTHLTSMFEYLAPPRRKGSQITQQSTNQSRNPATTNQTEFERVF

Cn1cc(-c2nc(Nc3ccc(S(N)(=O)=O)cc3)ncc2Cl)cn1
GI50 [1]: 768 nM | Activity (HCT-116 [2]): 1.83% | GI50 (NCI-H460): 527 nM | GI50 [3]: 545 nM | GI50 (A2780): 74 nM | GI50 (OV-90): 444 nM | Activity (HCT-116 [4]): 12.2% | GI50 (OVCAR-5): 108 nM | Activity (HCT-116 [5]): 4.24% | GI50 (HT-29): 291 nM | GI50 (U-937): 145 nM | GI50 (U-251): 695 nM | GI50 (NCI-H82): 183 nM | Activity (HCT-116 [6]): 2.11% | Activity (HCT-116 [7]): 9.6% | viability at 0.5 µM (HCT-116 [8]): 77% | Activity (HCT-116 [9]): 52.06% | Ki (CDK9/cyclin T1): 17 nM | Ki [10]: 33 nM | inhibition [11]: Dose-Dependent Effect | Activity (HCT-116 [12]): 86.28% | Activity (HCT-116 [13]): inactive | GI50 (COLO 205): 194 nM | GI50 (ES-2): 285 nM | Activity (HCT-116 [14]): 5.01% | GI50 (MDA-MB-231): 472 nM | GI50 (MV4-11): 88 nM | GI50 (HCT-116 [15]): 186 nM | Activity (HCT-116 [16]): 0.51% | GI50 (OAW-28): 780 nM | Activity (HCT-116 [17]): 18.5% | Activity (HCT-116 [18]): 7.94% | Activity (HCT-116 [19]): 1.19% | Ki [20]: 5 nM | GI50 (KM12): 558 nM | Activity (HCT-116 [21]): Active | viability at 1 µM (HCT-116 [22]): 78.4% | Activity (HCT-116 [23]): Active | Ki [24]: 1 nM | inhibition [25]: Dose-Dependent Effect | Activity (HCT-116 [26]): 4.78% | Activity (HCT-116 [27]): 27.94%
